Data reported in US10533000B2, “Metabotrophic glutamate receptor 5 modulators and methods of use thereof” (Sunovion Pharmaceuticals, Inc., priority 2011, dated 2020).

Target: mGluR5 (Homo sapiens, UniProt P41594)
Experiment: mGluR5 positive allosteric modulator (PAM) functional assay
Type: cell-based

Chain of mGluR5 (P41594 21-1212): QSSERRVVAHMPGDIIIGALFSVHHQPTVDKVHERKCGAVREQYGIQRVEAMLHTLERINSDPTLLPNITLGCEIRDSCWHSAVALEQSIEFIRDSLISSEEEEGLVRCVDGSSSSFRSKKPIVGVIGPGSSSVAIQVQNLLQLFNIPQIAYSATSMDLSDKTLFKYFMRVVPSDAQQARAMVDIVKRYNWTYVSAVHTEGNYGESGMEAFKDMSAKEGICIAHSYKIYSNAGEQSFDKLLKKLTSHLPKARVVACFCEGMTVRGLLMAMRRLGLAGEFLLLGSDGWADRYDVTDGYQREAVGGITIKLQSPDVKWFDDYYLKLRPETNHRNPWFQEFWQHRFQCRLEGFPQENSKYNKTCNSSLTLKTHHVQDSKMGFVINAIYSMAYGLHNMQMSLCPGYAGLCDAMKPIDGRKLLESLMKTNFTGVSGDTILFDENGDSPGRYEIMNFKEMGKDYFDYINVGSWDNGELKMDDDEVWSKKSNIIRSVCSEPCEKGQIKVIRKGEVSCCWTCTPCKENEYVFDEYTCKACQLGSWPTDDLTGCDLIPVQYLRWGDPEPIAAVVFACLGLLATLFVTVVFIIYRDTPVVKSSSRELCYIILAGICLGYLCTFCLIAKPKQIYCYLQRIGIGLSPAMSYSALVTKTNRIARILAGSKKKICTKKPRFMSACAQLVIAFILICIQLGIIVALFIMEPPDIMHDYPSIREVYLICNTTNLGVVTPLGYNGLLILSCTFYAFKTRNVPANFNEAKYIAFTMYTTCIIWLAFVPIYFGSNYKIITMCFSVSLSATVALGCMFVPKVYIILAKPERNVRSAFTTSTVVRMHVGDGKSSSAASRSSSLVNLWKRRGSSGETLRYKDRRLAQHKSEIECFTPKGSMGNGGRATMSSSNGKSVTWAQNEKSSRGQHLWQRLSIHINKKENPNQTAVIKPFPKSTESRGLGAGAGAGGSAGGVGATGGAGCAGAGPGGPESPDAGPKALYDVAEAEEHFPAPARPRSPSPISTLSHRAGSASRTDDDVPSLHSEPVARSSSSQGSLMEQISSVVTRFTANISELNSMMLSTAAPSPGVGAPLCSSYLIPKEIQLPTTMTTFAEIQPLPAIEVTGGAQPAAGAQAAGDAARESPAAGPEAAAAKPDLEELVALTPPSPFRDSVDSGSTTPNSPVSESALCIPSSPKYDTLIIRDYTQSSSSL

Compound	EC50 [nM]
CC[C@H](C)c1nc(-c2ccc(C#Cc3cccc(F)c3)cc2)no1 (single isomer, unassigned) [Compound 30]	300 to 1000
Fc1cccc(C#Cc2ccc(-c3noc(C4CCCN4)n3)nc2)c1 (stereo in doubt) [Compound 121, (S)-3-(5-((3-fluorophenyl)ethynyl)pyridin-2-yl)-5-(pyrrolidin-2-yl)-1,2,4-oxadiazole]	300 to 1000
Fc1cccc(C#Cc2ccc(-c3nnc(C4CCCC4)o3)cc2)c1 [Compound 1, 2-cyclopentyl-5-(4-((3-fluorophenyl)ethynyl)phenyl)-1,3,4-oxadiazole]	300 to 1000
CCC(CC)c1nnc(-c2ccc(C#Cc3cccc(F)c3)cc2)o1 [Compound 4, 2-(4-((3-fluorophenyl)ethynyl)phenyl)-5-(pentan-3-yl)-1,3,4-oxadiazole]	30 to 100
CC(C)(C)c1noc(-c2ccc(C#Cc3cccc(F)c3)cc2)n1 [Compound 17, 3-(tert-butyl)-5-(4-((3-fluorophenyl)ethynyl)phenyl)-1,2,4-oxadiazole]	300 to 1000
CC(C)Cc1nc(-c2ccc(C#Cc3cccc(F)c3)cc2)no1 [Compound 26, 3-(4-((3-fluorophenyl)ethynyl)phenyl)-5-isobutyl-1,2,4-oxadiazole]	300 to 1000
CCC(C)c1nc(-c2ccc(C#Cc3cccc(F)c3)cc2)no1 (centres unmarked) [Compound 29, 5-5-(sec-butyl)-3-(4-((3-fluorophenyl)ethynyl)phenyl)-1,2,4-oxadiazole]	100 to 300
CCC(CC)c1nc(-c2ccc(C#Cc3cccc(F)c3)cc2)no1 [Compound 34, 3-(4-((3-fluorophenyl)ethynyl)phenyl)-5-(pentan-3-yl)-1,2,4-oxadiazole]	100 to 300
Fc1cccc(C#Cc2ccc(-c3noc(C4CCCO4)n3)cc2)c1 (centres unmarked) [Compound 39, 3-(4-((3-fluorophenyl)ethynyl)phenyl)-5-(tetrahydrofuran-2-yl)-1,2,4-oxadiazole]	300 to 1000
COCCc1nc(-c2ccc(C#Cc3cccc(F)c3)cc2)no1 [Compound 40, 3-(4-((3-fluorophenyl)ethynyl)phenyl)-5-(2-methoxyethyl)-1,2,4-oxadiazole]	300 to 1000
CN1CCCC1c1nc(-c2ccc(C#Cc3cccc(F)c3)cc2)no1 (centres unmarked) [Compound 47, 3-(4-((3-fluorophenyl)ethynyl)phenyl)-5-(1-methylpyrrolidin-2-yl)-1,2,4-oxadiazole]	100 to 300
CN1CCCC1(C)c1nc(-c2ccc(C#Cc3cccc(F)c3)cn2)no1 (centres unmarked) [Compound 51, 5-(1,2-dimethylpyrrolidin-2-yl)-3-(5-((3-fluorophenyl)ethynyl)pyridin-2-yl)-1,2,4-oxadiazole]	≤ 30
CC(c1nc(-c2ccc(C#Cc3cccc(F)c3)cc2)no1)N1CCCC1 (centres unmarked) [Compound 53, 3-(4-((3-fluorophenyl)ethynyl)phenyl)-5-(1-(pyrrolidin-1-yl)ethyl)-1,2,4-oxadiazole]	300 to 1000
COC(C)c1nc(-c2ccc(C#Cc3cccc(F)c3)cc2)no1 (centres unmarked) [Compound 58, 3-(4-((3-fluorophenyl)ethynyl)phenyl)-5-(1-methoxyethyl)-1,2,4-oxadiazole]	100 to 300
CCN(C)c1nc(-c2ccc(C#Cc3cccc(F)c3)cc2)no1 [Compound 61, N-ethyl-3-(4-((3-fluorophenyl)ethynyl)phenyl)-N-methyl-1,2,4-oxadiazol-5-amine]	300 to 1000
CCC(C)c1nc(-c2ccc(C#Cc3ccccn3)cc2)no1 (centres unmarked) [Compound 67]	≤ 30
CN1CCCC1c1nc(-c2ccc(C#Cc3ccccn3)cc2)no1 (centres unmarked) [Compound 70, 5-(1-methylpyrrolidin-2-yl)-3-(4-(pyridin-2-ylethynyl)phenyl)-1,2,4-oxadiazole]	≤ 30
CCC(CC)c1nc(-c2ccc(C#Cc3ccncc3)cc2)no1 [Compound 75, 5-(pentan-3-yl)-3-(4-(pyridin-4-ylethynyl)phenyl)-1,2,4-oxadiazole]	30 to 100
C(#Cc1ccc(-c2noc(C3CCCN3)n2)cc1)c1ccncc1 (centres unmarked) [Compound 77, 3-(4-(pyridin-4-ylethynyl)phenyl)-5-(pyrrolidin-2-yl)-1,2,4-oxadiazole]	100 to 300
CCC(C)c1nc(-c2ccc(C#Cc3cccnc3)cc2)no1 (centres unmarked) [Compound 81, 5-(sec-butyl)-3-(4-(pyridin-3-ylethynyl)phenyl)-1,2,4-oxadiazole]	300 to 1000
CCC(C)c1nc(-c2ccc(C#Cc3cccc(F)c3)nc2)no1 (centres unmarked) [Compound 82, 5-(sec-butyl)-3-(6-((3-fluorophenyl)ethynyl)pyridin-3-yl)-1,2,4-oxadiazole]	30 to 100
COC(C)c1nc(-c2ccc(C#Cc3cccc(F)c3)nc2)no1 (centres unmarked) [Compound 84, 3-(6-((3-fluorophenyl)ethynyl)pyridin-3-yl)-5-(1-methoxyethyl)-1,2,4-oxadiazole]	30 to 100
CCC(OC)c1nc(-c2ccc(C#Cc3cccc(F)c3)nc2)no1 (centres unmarked) [Compound 85, 3-(6-((3-fluorophenyl)ethynyl)pyridin-3-yl)-5-(1-methoxypropyl)-1,2,4-oxadiazole]	≤ 30

Now from value to compound:

EC50 [nM]	Compound
300 to 1000	CC[C@@H](C)c1nc(-c2ccc(C#Cc3cccc(F)c3)cc2)no1 (single isomer, unassigned) [Compound 31]
100 to 300	CC[C@H](C)c1nc(-c2ccc(C#Cc3ccncc3)cc2)no1 (single isomer, unassigned) [Compound 72]
30 to 100	CC[C@@H](C)c1nc(-c2ccc(C#Cc3ccncc3)cc2)no1 (single isomer, unassigned) [Compound 73]
100 to 300	Fc1cccc(C#Cc2ccc(-c3noc(C4CCCN4)n3)nc2)c1 (stereo in doubt) [Compound 120, (R)-3-(5-((3-fluorophenyl)ethynyl)pyridin-2-yl)-5-(pyrrolidin-2-yl)-1,2,4-oxadiazole]
100 to 300	CCC(C)c1nnc(-c2ccc(C#Cc3cccc(F)c3)cc2)o1 (centres unmarked) [Compound 2, 2-(sec-butyl)-5-(4-((3-fluorophenyl)ethynyl)phenyl)-1,3,4-oxadiazole]
30 to 100	CCC(CC)c1nnc(-c2ccc(C#Cc3ccncc3)cc2)o1 [Compound 3, 2-(pentan-3-yl)-5-(4-(pyridin-4-ylethynyl)phenyl)-1,3,4-oxadiazole]
100 to 300	CC(c1nnc(-c2ccc(C#Cc3ccccn3)cn2)n1C)N1CCCC1 (centres unmarked) [Compound 10, 2-(4-methyl-5-(1-(pyrrolidin-1-yl)ethyl)-4H-1,2,4-triazol-3-yl)-5-(pyridin-2-ylethynyl)pyridine]
300 to 1000	CC(C)c1nc(-c2ccc(C#Cc3cccc(F)c3)cc2)no1 [Compound 24, 3-(4-((3-fluorophenyl)ethynyl)phenyl)-5-isopropyl-1,2,4-oxadiazole]
100 to 300	CC(C)(C)c1nc(-c2ccc(C#Cc3cccc(F)c3)cc2)no1 [Compound 27, 5-(tert-butyl)-3-(4-((3-fluorophenyl)ethynyl)phenyl)-1,2,4-oxadiazole]
100 to 300	Fc1cccc(C#Cc2ccc(-c3noc(C4CCCC4)n3)cc2)c1 [Compound 32, 5-cyclopentyl-3-(4-((3-fluorophenyl)ethynyl)phenyl)-1,2,4-oxadiazole]
100 to 300	CCC(OC)c1nc(-c2ccc(C#Cc3cccc(F)c3)cc2)no1 (centres unmarked) [Compound 44, 3-(4-((3-fluorophenyl)ethynyl)phenyl)-5-(1-methoxypropyl)-1,2,4-oxadiazole]
100 to 300	CCN1CCCC1c1nc(-c2ccc(C#Cc3cccc(F)c3)cc2)no1 (centres unmarked) [Compound 48, 5-(1-ethylpyrrolidin-2-yl)-3-(4-((3-fluorophenyl)ethynyl)phenyl)-1,2,4-oxadiazole]
300 to 1000	CC(C)N1CCCC1c1nc(-c2ccc(C#Cc3cccc(F)c3)cc2)no1 (centres unmarked) [Compound 49, 3-(4-((3-fluorophenyl)ethynyl)phenyl)-5-(1-isopropylpyrrolidin-2-yl)-1,2,4-oxadiazole]
300 to 1000	Fc1cccc(C#Cc2ccc(-c3noc(C4CCCN4C4CCC4)n3)cc2)c1 (centres unmarked) [Compound 50, 5-(1-cyclobutylpyrrolidin-2-yl)-3-(4-((3-fluorophenyl)ethynyl)phenyl)-1,2,4-oxadiazole]
300 to 1000	CC(c1nc(-c2ccc(C#Cc3cccc(F)c3)cc2)no1)N1CCC1 (centres unmarked) [Compound 52, 5-(1-(azetidin-1-yl)ethyl)-3-(4-((3-fluorophenyl)ethynyl)phenyl)-1,2,4-oxadiazole]
300 to 1000	CC(c1nc(-c2ccc(C#Cc3cccc(F)c3)cc2)no1)N(C)C1CC1 (centres unmarked) [Compound 54, N-(1-(3-(4-((3-fluorophenyl)ethynyl)phenyl)-1,2,4-oxadiazol-5-yl)ethyl)-N-methylcyclopropanamine]
100 to 300	CC(C)(C)c1nc(-c2ccc(C#Cc3ccc(F)cc3)cc2)no1 [Compound 66, 5-(tert-butyl)-3-(4-((4-fluorophenyl)ethynyl)phenyl)-1,2,4-oxadiazole]
100 to 300	CCC(C)c1nc(-c2ccc(C#Cc3ccncc3)cc2)no1 (centres unmarked) [Compound 71, 5-(sec-butyl)-3-(4-(pyridin-4-ylethynyl)phenyl)-1,2,4-oxadiazole]
≤ 30	COC(C)c1nc(-c2ccc(C#Cc3ccncc3)cc2)no1 (centres unmarked) [Compound 74, 5-(1-methoxyethyl)-3-(4-(pyridin-4-ylethynyl)phenyl)-1,2,4-oxadiazole]
30 to 100	CCC(OC)c1nc(-c2ccc(C#Cc3ccncc3)cc2)no1 (centres unmarked) [Compound 76, 5-(1-methoxypropyl)-3-(4-(pyridin-4-ylethynyl)phenyl)-1,2,4-oxadiazole]
≤ 30	CN1CCCC1c1nc(-c2ccc(C#Cc3ccncc3)cc2)no1 (centres unmarked) [Compound 78, 5-(1-methylpyrrolidin-2-yl)-3-(4-(pyridin-4-ylethynyl)phenyl)-1,2,4-oxadiazole]
100 to 300	CNC(C)c1nc(-c2ccc(C#Cc3ccncc3)cc2)no1 (centres unmarked) [Compound 79, N-methyl-1-(3-(4-(pyridin-4-ylethynyl)phenyl)-1,2,4-oxadiazol-5-yl)ethanamine]
≤ 30	CC(c1nc(-c2ccc(C#Cc3ccncc3)cc2)no1)N(C)C (centres unmarked) [Compound 80, N,N-dimethyl-1-(3-(4-(pyridin-4-ylethynyl)phenyl)-1,2,4-oxadiazol-5-yl)ethanamine]
100 to 300	Fc1cccc(C#Cc2ccc(-c3noc(C4CCCC4)n3)cn2)c1 [Compound 83, 5-cyclopentyl-3-(6-((3-fluorophenyl)ethynyl)pyridin-3-yl)-1,2,4-oxadiazole]
